Here are results for 26 compounds from patent publication US11780843B2, “Compounds active towards nuclear receptors” (NUEVOLUTION A/S, priority 2020, dated 2023).

Bounds are passed on as bounds.

In the first test the target is T1, RORγ ligand-binding domain (Homo sapiens, UniProt P51449).
T1 construct: Gal4 (galactose-responsive transcription factor); expressed in transfected cells; host or cells: HEK293, transient co-transfection
T1 sequence (P51449 269-508 limits assumed): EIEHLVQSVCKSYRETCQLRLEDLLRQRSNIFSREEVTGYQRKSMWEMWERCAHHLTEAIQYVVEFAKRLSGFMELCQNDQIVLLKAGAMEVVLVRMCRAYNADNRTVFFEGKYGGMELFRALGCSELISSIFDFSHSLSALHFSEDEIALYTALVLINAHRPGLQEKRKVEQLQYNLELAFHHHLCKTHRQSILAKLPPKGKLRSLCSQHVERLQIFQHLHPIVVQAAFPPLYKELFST
Put plainly: RORγ Reporter Assay (Gal4). In kind it is cell-based. The note with it: HEK293 cells, luciferase reporter, 24 h incubation, absolute IC50; read-out: IC50. The method, then:
The HEK293 cell line is co-transfected transiently with two plasmids, one with the RORγ ligand-binding domain fused to galactose-responsive transcription factor (Ga14), and the other with the luciferase reporter gene and Gal binding sites (UAS). This construction allows to determine the RORT activity in a cellular system through the measurement of luminescence.
A suspension of RORγ reporter cells was dispensed into plates and cultured 2 h at 37° C. and 5% CO2. Media formulation consisted in DMEM/F-12 medium (Gibco) supplemented with 10% heat inactivated FBS (Sigma-Aldrich), non-essential aminoacids (Sigma-Aldrich), 2 mM Glutamax (Gibco) and 100 U/mL penicillin (Sigma-Aldrich). Dose-response curves with compounds were prepared in 100% DMSO and further diluted 100-fold in culture medium. Compound solutions were added to the plate containing cells (final DMSO concentration of 0.1%) and incubated for 24 h at 37° C. and 5% CO2. Luciferase detection reagent was added to each well, and relative light units (RLUs) were quantified from each assay well using a plate reading luminometer.
Values of average RLU±S.D. were computed for all treatment sets, followed by the calculations of percent-reduction of RORT activity in response to respective test compound. The following formula was used: activity=100*[1−[[…]] where the theoretical minimum reduction (0% reduction). […] These calculations were performed in excel-fit software using X-204 model curve.
A general note: Reporter assays use an easily measured gene product as a stand-in for the process of interest.
Usually IC50 stands for the concentration that inhibits the measured activity by half. `CCN(Cc1ccc(C(F)(F)F)cc1F)c1ncnc2c1ccn2C[C@@]1(O)CCN(CC(N)=O)C[C@@H]1O` (racemic) [Example L5-3-1, rac-2-((3R,4R)-4-((4-(ethyl(2-fluoro-4-(trifluoromethyl)benzyl)amino)-7H-pyrrolo[2,3-d]pyrimidin-7-yl)methyl)-3,4-dihydroxypiperidin-1-yl)acetamide]: the concentration for half-maximal inhibition (IC50) stood at 63 nM. Same read-out and setting: with `NC(=O)CN1CC[C@@H](Cn2cc(F)c3c(N(Cc4cnc(C(F)(F)F)nc4)C4CC4)ncnc32)[C@H](O)C1` (racemic) [Example P6-17, rac-2-((3R,4R)-4-((4-(cyclopropyl((2-(trifluoromethyl)pyrimidin-5-yl)methyl)amino)-5-fluoro-7H-pyrrolo[2,3-d]pyrimidin-7-yl)methyl)-3-hydroxypiperidin-1-yl)acetamide] the figure was 43 nM; with `NC(=O)CN1CC[C@@H](Cn2cnc3c(N(Cc4cccc(C(F)(F)F)c4)C4CC4)ncnc32)[C@H](O)C1` (racemic) [Example P6-20, rac-2-((3R,4R)-4-((6-(cyclopropyl(3-(trifluoromethyl)benzyl)amino)-9H-purin-9-yl)methyl)-3-hydroxypiperidin-1-yl)acetamide], above 1000 nM; with `CC(C)N(Cc1ccc(C(F)(F)F)cc1)c1ncnc2c1ncn2C[C@@H]1CCN(CC(N)=O)C[C@H]1O` (racemic) [Example P6-22, rac-2-((3R,4R)-3-hydroxy-4-((6-(isopropyl(4-(trifluoromethyl)benzyl)amino)-9H-purin-9-yl)methyl)piperidin-1-yl)acetamide], 77 nM. Turning to `CCN(Cc1ccc(C#N)cc1)c1ncnc2c1ccn2C[C@@H]1CCN(CC(N)=O)C[C@H]1O` (relative stereo) [P6-29″, rel-2-((3R,4R)-4-((4-((4-cyanobenzyl)(ethyl)amino)-7H-pyrrolo[2,3-d]pyrimidin-7-yl)methyl)-3-hydroxypiperidin-1-yl)acetamide], the IC50 was above 1000 nM.

Turning to `CCN(Cc1ccc(-c2cnn(C)c2)cc1)c1ncnc2c1ccn2C[C@@H]1CCN(CC(N)=O)C[C@H]1O` (relative stereo) [P6-34″, rel-2-((3R,4R)-4-((4-(ethyl(4-(1-methyl-1H-pyrazol-4-yl)benzyl)amino)-7H-pyrrolo[2,3-d]pyrimidin-7-yl)methyl)-3-hydroxypiperidin-1-yl)acetamide], the IC50 turned out to be 12 nM. For `CCN(Cc1ccc(-c2cnn(C)c2)cc1F)c1ncnc2c1ccn2C[C@@H]1CCN(CC(N)=O)C[C@H]1O` (relative stereo) [P6-35″, rel-2-((3R,4R)-4-((4-(ethyl(2-fluoro-4-(1-methyl-1H-pyrazol-4-yl)benzyl)amino)-7H-pyrrolo[2,3-d]pyrimidin-7-yl)methyl)-3-hydroxypiperidin-1-yl)acetamide], the IC50 is 24 nM. Still for that read-out and setting: with `CCN(Cc1ccc(-n2cccn2)cc1F)c1ncnc2c1ccn2C[C@@H]1CCN(CC(N)=O)C[C@H]1O` (relative stereo) [P6-36″, rel-2-((3R,4R)-4-((4-(ethyl(2-fluoro-4-(1H-pyrazol-1-yl)benzyl)amino)-7H-pyrrolo[2,3-d]pyrimidin-7-yl)methyl)-3-hydroxypiperidin-1-yl)acetamide] the figure was 14 nM. Turning to `CCN(Cc1ccc(-n2cccn2)cc1F)c1ncnc2c1ccn2C[C@@]1(O)CCN(CC(N)=O)C[C@@H]1O` (relative stereo) [R5-5″, Rel-2-((3R,4R)-4-((4-(ethyl(2-fluoro-4-(1H-pyrazol-1-yl)benzyl)amino)-7H-pyrrolo[2,3-d]pyrimidin-7-yl)methyl)-3,4-dihydroxypiperidin-1-yl)acetamide], the IC50 is 15 nM. For the compound `NC(=O)CN1CCC(Cn2ccc3c(N(Cc4ccc(C(F)(F)F)cc4)C4CC4)ncnc32)C(F)(F)C1` (single isomer, unassigned) [Example K8-1-1], the IC50 came to 9 nM. `NC(=O)CN1CCC(Cn2ccc3c(N(Cc4ccc(C(F)(F)F)cc4)C4CC4)ncnc32)C(F)(F)C1` (single isomer, unassigned) [Example K8-1-2]: the IC50 was determined as 4 nM. Still for that read-out and setting: with `NC(=O)CN1CC[C@@H](Cn2ccc3c(N(Cc4ccc(C(F)(F)F)cc4)C4CC4)ncnc32)[C@H](F)C1` (single isomer, unassigned) [Example K8-2-1] the figure was 6.1 nM; with `NC(=O)CN1CC[C@@H](Cn2ccc3c(N(Cc4ccc(C(F)(F)F)cc4)C4CC4)ncnc32)[C@H](F)C1` (single isomer, unassigned) [Example K8-2-2], 3.1 nM.

Take `NC(=O)CN1CC[C@@H](Cn2ccc3c(N(Cc4ccc(C(F)(F)F)cn4)C4CC4)ncnc32)[C@H](F)C1` (single isomer, unassigned) [Example K8-3-1]: the IC50 is 76 nM. For the compound `NC(=O)CN1CC[C@@H](Cn2ccc3c(N(Cc4ccc(C(F)(F)F)cn4)C4CC4)ncnc32)[C@H](F)C1` (single isomer, unassigned) [Example K8-3-2], the IC50 came out at 22 nM. For the compound `NC(=O)CN1CC[C@@H](Cn2ccc3c(N4CCOC[C@@H]4c4ccc(C(F)(F)F)cc4)ncnc32)[C@H](O)C1` (single isomer, unassigned) [Example P6-01-1, 2-((3R*,4R*)-3-hydroxy-4-((4-((S)-3-(4-(trifluoromethyl)phenyl)morpholino)-7H-pyrrolo[2,3-d]pyrimidin-7-yl)methyl)piperidin-1-yl)acetamide], the IC50 came to 12 nM.

`NC(=O)CN1CC[C@@H](Cn2ccc3c(N4CCOC[C@@H]4c4ccc(C(F)(F)F)cc4)ncnc32)[C@H](O)C1` (single isomer, unassigned) [Example P6-01-2, 2-((3R*,4R*)-3-hydroxy-4-((4-((S)-3-(4-(trifluoromethyl)phenyl)morpholino)-7H-pyrrolo[2,3-d]pyrimidin-7-yl)methyl)piperidin-1-yl)acetamide]: the IC50 came to 25 nM.

On to `NC(=O)CN1CC[C@@H](Cn2ccc3c(N4CCOC[C@@H]4c4cccc(C(F)(F)F)c4)ncnc32)[C@H](O)C1` (single isomer, unassigned) [Example P6-03-1], for which the half-maximal inhibitory concentration (IC50) was 13 nM.

For the compound `NC(=O)CN1CC[C@@H](Cn2ccc3c(N4CCOC[C@@H]4c4cccc(C(F)(F)F)c4)ncnc32)[C@H](O)C1` (single isomer, unassigned) [Example P6-03-2], the 50% inhibitory concentration (IC50) came to 26 nM. Same read-out and setting: with `NC(=O)CN1CC[C@@H](Cn2ccc3c(N4CCOC[C@H]4c4cccc(C(F)(F)F)c4)ncnc32)[C@H](O)C1` (single isomer, unassigned) [Example P6-04-1] the figure was 47 nM; with `NC(=O)CN1CC[C@@H](Cn2cnc3c(N(Cc4ccc(C(F)(F)F)cc4)C4CC4)ncnc32)[C@H](O)C1` (single isomer, unassigned) [Example P6-26-1], 65 nM. For the compound `NC(=O)CN1CC[C@@H](Cn2ccc3c(N4CCOC[C@@H]4c4ccc(C(F)(F)F)cn4)ncnc32)[C@H](F)C1` (single isomer, unassigned) [Example Q4-1-1, 2-((3R*,4R*)-3-fluoro-4-((4-((S)-3-(5-(trifluoromethyl)pyridin-2-yl)morpholino)-7H-pyrrolo[2,3-d]pyrimidin-7-yl)methyl)piperidin-1-yl)acetamide], the IC50 is 170 nM. As for `NC(=O)CN1CC[C@@H](Cn2ccc3c(N4CCOC[C@@H]4c4ccc(C(F)(F)F)cn4)ncnc32)[C@H](F)C1` (single isomer, unassigned) [Example Q4-1-2, 2-((3R*,4R*)-3-fluoro-4-((4-((S)-3-(5-(trifluoromethyl)pyridin-2-yl)morpholino)-7H-pyrrolo[2,3-d]pyrimidin-7-yl)methyl)piperidin-1-yl)acetamide], the IC50 was determined as 250 nM. `NC(=O)CN1CCC(O)(Cn2cnc3c(N(Cc4ccc(C(F)(F)F)cc4)C4CC4)ncnc32)CC1` [Example 3P6-3, 2-(4-((6-(cyclopropyl(4-(trifluoromethyl)benzyl)amino)-9H-purin-9-yl)methyl)-4-hydroxypiperidin-1-yl)acetamide]: the IC50 came to 72 nM. Turning to `N#Cc1cn(CC2(O)CCN(CC(N)=O)CC2)c2ncnc(N(Cc3ccc(C(F)(F)F)cc3)C3CC3)c12` [Example 3P6-4, 2-(4-((5-cyano-4-(cyclopropyl(4-(trifluoromethyl)benzyl)amino)-7H-pyrrolo[2,3-d]pyrimidin-7-yl)methyl)-4-hydroxypiperidin-1-yl)acetamide], the IC50 turned out to be 297 nM.

As to `CN(Cc1ccc(C(F)(F)F)cc1)c1ncnc2c1c(F)cn2CC1(O)CCN(CC(N)=O)CC1` [Example 3P6-5, 2-(4-((5-fluoro-4-(methyl(4-(trifluoromethyl)benzyl)amino)-7H-pyrrolo[2,3-d]pyrimidin-7-yl)methyl)-4-hydroxypiperidin-1-yl)acetamide], the concentration for half-maximal inhibition (IC50) worked out at 87 nM.

The same test, now with this note: stated as a bound only (Tables 5 a, 6, 7); read-out: Gal4 assay IC50.
For the compound `NC(=O)CN1CC[C@@H](Cn2ccc3c(N4CCOC[C@@H]4c4ccc(C(F)(F)F)cn4)ncnc32)[C@H](F)C1` (single isomer, unassigned) [Example Q4-1-1, 2-((3R*,4R*)-3-fluoro-4-((4-((S)-3-(5-(trifluoromethyl)pyridin-2-yl)morpholino)-7H-pyrrolo[2,3-d]pyrimidin-7-yl)methyl)piperidin-1-yl)acetamide], the 50% inhibitory concentration (IC50) is below 500 nM.
